Where two headings read alike, the source gives them in different places.
Legend:
[1] = system: NHDF, Normal Human Dermal Fibroblast; assay: In vitro cytotoxicity (MTT) on NHDF; format: cell-based
Description: (§1) This assay was performed to determine the effect of compounds of the present invention on cell cytotoxicity. Cells were incubated in presence or absence of compounds in their respective conditioned media. […] The supernatant was discarded and 100 μl of dimethylsulfoxide (DMSO) was added. Absorbance was read at […] with an ELISA Tecan SUNRISE™ plate reader. The control group consisted of cells without compounds and is referred to as 100% of viable cells. IC50 was determined using PRISM® software.
(§2) The predictive utility of cell-based cytotoxicity assays to assess the potential in vivo anticancer activity of compounds with selected cancer cell lines is well established in the art and the use of whole cells, instead of isolated protein receptors or enzymes, provides a more reliable determination of activity. See, for example, Paull et al. J. Natl. Cancer Inst. 81:1088-1092 (1989); Monks et al. J. Natl. Cancer Inst. 83:757-766 (1991); Bandes et al. J. Natl. Cancer Inst. 86:770-775 (1994); and Kamate et al. Intl. J. Cancer 100:571-579 (2002).

[2] = system: Hep-G2, human liver cell; assay: In vitro cytotoxicity (MTT) on Hep-G2; format: cell-based; conditions: HepG2, 24-hour cell culture
Description: as §1, §2

[3] = system: B16F10, murine melanoma cell; assay: In vitro cytotoxicity (MTT) on B16F10; format: cell-based; conditions: Mus musculus, B16-F10
Description: as §1, §2

[4] = system: PBML, Peripheral Blood Mononuclear Leukocytes; assay: In vitro cytotoxicity (MTT) on PBML; format: cell-based; conditions: Leukocyte
Description: as §1, §2

[5] = system: P815, murine mastocytoma cell; assay: In vitro cytotoxicity (MTT) on P815; format: cell-based; conditions: Mus musculus
Description: as §1, §2

[6] = system: CAKI-2, human kidney cell; assay: In vitro cytotoxicity (MTT) on CAKI-2; format: cell-based; conditions: 24-hour cell culture
Description: as §1, §2

[7] = system: PC-3, human prostate carcinoma cell; assay: In vitro cytotoxicity (MTT) on PC-3; format: cell-based
Description: as §1, §2

[8] = system: DA-3; assay: In vitro cytotoxicity (MTT) on DA-3; format: cell-based, BALB/c mice; conditions: Mus musculus
Description: as §1, §2
The syngeneic tumor DMBA3 (DA-3, breast carcinoma model) arose from a preneoplastic lesion treated with 7,12-dimethylbenzanthracene in female BALB/c mice. DA-3 cells were grown as monolayer cultures in plastic flasks in RPMI-1640 containing 0.1 mM nonessential amino acids, 0.1 μM sodium pyruvate, 2 mM L-glutamine. This was further supplemented with 50 μM 2-mercaptoethanol and 10% fetal bovine serum. The DA-3 tumors were serially passage in vivo by intradermal inoculation of 5×10^5 viable tumor cells to produce localized tumors in 6- to 8-week old BALB/c mice. The animals were then serially monitored by manual palpation for evidence of tumor. Mice were treated at day 11, 18 and 25 with cyclophosphamide (100 mg/kg) and at day 11, 12, 13, 15, 18, 20, 22, 25, 27 and 29 with compound 1, 2, 3 or 8 (50 mg/kg). Mice were sacrificed at day 43. Serial tumor volume was obtained by bi-dimensional diameter measurements with calipers, using the formula 0.4 (a×b^2) where “a” was the major tumor diameter and “b” the minor perpendicular diameter. […] The National Cancer Institute (USA) defines the product as effective if T/C is ≦40%.

[9] = system: B16F10 lung metastases; format: in vivo
Description: Female 6-8-week old C57BL/6 mice were injected intravenously on day 0 with 1-2.5×10^5 B16F10 melanoma cells from ATCC (source of cell culture, Dr. I. J. Fidler). B16F10 melanoma cells are a highly metastatic cell line which preferentially forms nodules in the lungs. Cells were cultured in DMEM supplemented with 10% fetal bovine serum. […] Fourteen days after inoculation, mice were sacrificed and their lungs were removed, rinsed in PBS, and placed in Bouin's fixative. The number of metastatic nodules (black colonies) on the surface of the lungs were counted.

Structure (SMILES)	IC50 ([1]; 24-hour cell culture) [µM]	IC50 ([1]; 72-hour cell culture) [µM]	IC50 [2] [µM]	IC50 ([3]; 24-hour cell culture) [nM]	IC50 ([3]; 72-hour cell culture) [nM]	IC50 ([4]; 24-hour cell culture) [µM]	IC50 ([4]; 72-hour cell culture) [µM]	IC50 ([5]; 24-hour cell culture) [µM]	IC50 ([5]; 72-hour cell culture) [µM]	IC50 [6] [µM]	IC50 ([7]; 24-hour cell culture) [µM]	IC50 ([7]; 72-hour cell culture) [µM]	IC50 ([8]; 24-hour cell culture) [µM]	inhibition of the number of tumor nodules in lungs ([9]; FIG. 3, 50 mg/kg i.v. on day -3, -2, -1, 3, 5 and 7, p<0.001)	inhibition of the number of tumor nodules in lungs ([9]; FIG. 5, p<0.05) [%]	IC50 ([8]; 72-hour cell culture) [µM]	reduction of the number of tumor nodules ([9]; FIG. 4, used alone, compound 50 mg/kg i.v., doxorubicin 1 mg/kg) [%]
Nc1ccc(CCNc2nc(NCCNc3nc(NCCc4ccc(N)cc4)nc(Nc4cccc(N)c4)n3)nc(Nc3cccc(N)c3)n2)cc1 [Compound 3]	> 100	> 100	> 40	4000	6000	> 100	> 100	33	3	> 40	> 100	15	–	–	–	–	–
Nc1cccc(Nc2nc(NCCO)nc(Nc3ccc(Nc4nc(NCCO)nc(Nc5cccc(N)c5)n4)cc3)n2)c1 [Compound 4]	> 100	> 100	–	12000	37000	100	> 100	86	32	–	78	37	–	–	–	–	–
Nc1cccc(Nc2nc(N)nc(Nc3cccc(Nc4nc(N)nc(Nc5cccc(N)c5)n4)c3)n2)c1 [Compound 5]	> 100	78	–	8500	39000	> 100	> 100	> 100	44.7	–	50	26	20	–	–	–	–
Nc1cccc(Nc2nc(NCCO)nc(Nc3cccc(Nc4nc(NCCO)nc(Nc5cccc(N)c5)n4)c3)n2)c1 [Compound 6]	> 100	> 100	–	2600	–	> 100	> 100	> 100	> 100	–	63	–	30	–	–	–	–
CN(C)c1nc(NCCc2ccc(Nc3nc(Nc4cccc(N)c4)nc(N(C)C)n3)cc2)nc(Nc2cccc(N)c2)n1 [Compound 7]	> 100	> 100	–	2200	3000	> 100	79	20	1.3	–	85	8	–	–	–	–	–
Nc1cccc(Nc2nc(NCCO)nc(NCc3cccc(F)c3)n2)c1 [Compound 9]	> 100	> 100	–	> 100000	91000	> 100	> 100	> 100	43	–	> 100	> 100	–	–	–	–	–
CC(Nc1nc(Nc2cccc(N)c2)nc(Nc2cccc(N)c2)n1)c1cccc(N)c1 (stereo not drawn) [Compound 10]	> 100	> 100	–	62000	36000	> 100	> 100	> 100	36.6	–	74	–	> 100	significant inhibition	–	–	–
Nc1cccc(Nc2nc(NCCNc3nc(Nc4cccc(N)c4)nc(Nc4cccc(O)c4)n3)nc(Nc3cccc(O)c3)n2)c1 [Compound 11]	–	–	–	1400	6300	–	–	21.2	4.8	–	4.4	4.9	–	–	–	–	–
CN(C)c1nc(NCCc2ccc(Nc3nc(NCCO)nc(Nc4cccc(N)c4)n3)cc2)nc(Nc2cccc(N)c2)n1 [Compound 12]	–	–	–	1200	2000	–	–	13.5	2.8	–	11	3.3	–	–	–	–	–
CN1CCN(c2nc(Nc3ccc(CCNc4nc(NCCO)nc(Nc5cccc(N)c5)n4)cc3)nc(Nc3cccc(N)c3)n2)CC1 [Compound 13]	–	–	–	1900	2200	–	–	6.5	2.1	–	11	6.1	–	–	–	–	–
Nc1cccc(Nc2nc(NCCO)nc(Nc3cccc(Nc4nc(NCCO)nc(Nc5cccc(F)c5)n4)c3)n2)c1 [Compound 14]	–	–	–	2600	10200	–	–	13.1	7.8	–	29.9	15.6	–	–	50	–	–
Nc1cccc(CCNc2nc(Nc3ccc(CCNc4nc(NCCO)nc(Nc5cccc(N)c5)n4)cc3)nc(Nc3cccc(N)c3)n2)c1 [Compound 15]	–	–	–	1800	2900	–	–	13.4	3.3	–	10.9	4.3	–	–	–	–	–
CN(C)c1nc(Nc2ccc(CCNc3nc(NCCO)nc(Nc4cccc(N)c4)n3)cc2)nc(Nc2cccc(N)c2)n1 [Compound 16]	–	–	–	500	3500	–	–	12.6	2.4	–	20.3	5.1	–	–	–	–	–
Nc1cccc(Nc2nc(NCCO)nc(NCCc3ccc(Nc4nc(NCCc5ccccc5N)nc(Nc5cccc(N)c5)n4)cc3)n2)c1 [Compound 17]	–	–	–	1200	3600	–	–	14.5	1.5	–	11.6	4	–	–	–	–	–
CN1CCN(c2nc(NCCc3ccc(Nc4nc(Nc5cccc(N)c5)nc(N5CCN(C)CC5)n4)cc3)nc(Nc3cccc(N)c3)n2)CC1 [Compound 18]	–	–	–	1100	600	–	–	2.5	0.7	–	12.2	10.3	–	–	–	–	–
Nc1cccc(Nc2nc(NCCO)nc(Nc3ccc(Nc4nc(NCCO)nc(Nc5cccc(F)c5)n4)cc3)n2)c1 [Compound 19]	19.4	–	–	2800	6200	–	–	16.4	8.6	–	8.2	5.7	4.5	–	–	13.4	–
COc1cccc2c1C(=O)c1c(O)c3c(c(O)c1C2=O)C[C@@](O)(C(=O)CO)C[C@@H]3O[C@H]1C[C@H](N)[C@H](O)[C@H](C)O1 [doxorubicin, reference compound]	–	–	–	–	–	–	–	–	–	–	–	–	–	–	–	–	90

From patent US20090075867A1, “Triazine compounds and compositions thereof for the treatment of cancers” (priority 2005, published 2009)
